Assay results from patent publication US20090069320A1, “Substituted 4-Amino-Quinazoline Compounds with Metabotropic Glutamate Receptor Regulating Activity and Uses Thereof” (Gruenenthal GmbH, priority 2006, published 2009).

Target: T1, mGluR5 receptor (Sus scrofa, UniProt I3LUI7)
T1 construct: 450 μg of protein from brain homogenate with 5 nM ^3[H]-MPEP; from tissue; host or cells: pig brain halves without medulla, cerebellum and pons
Assay: [3H]-MPEP mGluR5 receptor binding assay (pig brain homogenate)
Conditions: 10 μM compound, 5 nM [3H]-MPEP, read-out: % Inhibition of mGluR5 Receptor (pig) [^3H]-MPEP Bond at 10 μM
Procedure: I. Method for Determining the Inhibition of the [^3H]-MPEP Bond in the mGluR5 Receptor Binding Assay
Pig brain homogenate is produced by homogenizing (Polytron PT 3000, Kinematica AG, 10 000 rpm for 90 seconds) pig brain halves without medulla, cerebellum and pons in pH 8.0 buffer (20 mM Hepes, Sigma, order no. H3375+1 complete tablet, 100 ml, Roche Diagnostics, order no. 1836145) in the ratio of 1:20 (brain weight/volume) and differential centrifuging at 900×g and 40 000×g. In incubation batches of 250 μl in 96-well microtitre plates 450 μg of protein from brain homogenate with 5 nM ^3[H]-MPEP (Tocris, order no. R1212) (MPEP=[…]) and the compounds to be examined (10 μM in test) in buffer (as above) are respectively incubated at room temperature for 60 minutes.
The batches are then filtered using a Brandel cell harvester (Brandel, Robotic 9600) on unifilter plates with fibreglass filter mats (Perkin Elmer, order no. 6005177) and then washed with buffer (as above) 3-times each with 250 μl per sample. The filter plates are then dried for 60 mins. at 55° C. Then, 30 μL of Ultima Gold™ scintillator (Packard BioScience, order no. 6013159) are added per well and after 3 hours the samples are measured on the β-counter (MicroBeta, Perkin Elmer). The non-specific binding is determined by adding 10 μM of MPEP (Tocris, order no. 1212).

T1 sequence (I3LUI7 19-1212): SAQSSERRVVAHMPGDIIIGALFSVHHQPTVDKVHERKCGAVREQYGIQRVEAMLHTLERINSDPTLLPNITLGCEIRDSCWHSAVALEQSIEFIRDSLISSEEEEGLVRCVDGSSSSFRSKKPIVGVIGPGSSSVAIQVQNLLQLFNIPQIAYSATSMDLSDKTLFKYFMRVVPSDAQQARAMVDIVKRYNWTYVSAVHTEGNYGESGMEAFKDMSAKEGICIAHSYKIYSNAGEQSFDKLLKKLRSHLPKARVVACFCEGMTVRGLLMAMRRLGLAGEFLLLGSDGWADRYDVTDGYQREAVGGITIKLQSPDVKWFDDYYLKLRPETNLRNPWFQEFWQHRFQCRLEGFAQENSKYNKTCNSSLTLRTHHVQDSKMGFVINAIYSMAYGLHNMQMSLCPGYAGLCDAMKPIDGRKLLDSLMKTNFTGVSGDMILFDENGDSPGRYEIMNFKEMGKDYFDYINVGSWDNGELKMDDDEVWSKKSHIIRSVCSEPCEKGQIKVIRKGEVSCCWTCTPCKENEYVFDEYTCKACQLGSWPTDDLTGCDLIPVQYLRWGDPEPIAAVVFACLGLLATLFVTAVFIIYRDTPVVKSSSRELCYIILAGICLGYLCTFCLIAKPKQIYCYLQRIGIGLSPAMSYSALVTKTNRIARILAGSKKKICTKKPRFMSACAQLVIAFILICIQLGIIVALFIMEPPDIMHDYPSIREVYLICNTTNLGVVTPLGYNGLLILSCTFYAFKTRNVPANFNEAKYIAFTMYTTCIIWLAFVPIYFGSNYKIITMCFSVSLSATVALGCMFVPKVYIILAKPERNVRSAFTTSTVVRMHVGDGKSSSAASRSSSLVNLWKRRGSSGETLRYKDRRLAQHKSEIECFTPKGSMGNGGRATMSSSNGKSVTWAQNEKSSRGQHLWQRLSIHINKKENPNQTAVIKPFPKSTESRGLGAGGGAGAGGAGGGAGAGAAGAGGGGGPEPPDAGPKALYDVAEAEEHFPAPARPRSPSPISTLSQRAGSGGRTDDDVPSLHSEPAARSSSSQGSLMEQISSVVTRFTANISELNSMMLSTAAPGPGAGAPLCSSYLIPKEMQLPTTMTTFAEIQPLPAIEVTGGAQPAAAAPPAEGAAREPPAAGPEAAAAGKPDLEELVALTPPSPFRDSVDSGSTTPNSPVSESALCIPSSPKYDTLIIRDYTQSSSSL

inhibition at 10 µM [%]	SMILES
30	O=C(c1cc2ccccc2cn1)N(Cc1cccc(-c2ccc3ncnc(N4CCCC4)c3c2)c1)C1CC1 [Example 125, isoquinoline-3-carboxylic acid cyclopropyl-[3-(4-pyrrolidin-1-yl-quinazolin-6-yl)-benzyl]-amide]
50	N#CCC(=O)N(Cc1cccc(-c2ccc3ncnc(N4CCCC4)c3c2)c1)C1CC1 [Example 133, 2-cyano-N-cyclopropyl-N-[3-(4-pyrrolidin-1-yl-quinazolin-6-yl)-benzyl]-acetamide]
32	O=C(c1ccccc1C(F)(F)F)N(Cc1cccc(-c2ccc3ncnc(N4CCCC4)c3c2)c1)C1CC1 [Example 135, N-cyclopropyl-N-[3-(4-pyrrolidin-1-yl-quinazolin-6-yl)-benzyl]-2-trifluoromethyl-benzamide]
40	CCCC(=O)N(Cc1ccccc1)Cc1cccc(-c2ccc3ncnc(NC(C)C)c3c2)c1 [Example 148, N-benzyl-N-[3-(4-isopropylamino-quinazolin-6-yl)-benzyl]-butyramide]
66	CC(C)Nc1ncnc2ccc(-c3cccc(CN(Cc4ccccc4)C(=O)c4ccncc4)c3)cc12 [Example 151, N-benzyl-N-[3-(4-isopropylamino-quinazolin-6-yl)-benzyl]-isonicotinamide]
45	O=C(c1ccc(C(F)(F)F)cc1F)N(Cc1ccccc1)Cc1cccc(-c2ccc3ncnc(NC4CC4)c3c2)c1 [Example 152, N-benzyl-N-[3-(4-cyclopropylamino-quinazolin-6-yl)-benzyl]-2-fluoro-4-trifluoromethyl-benzamide]
63	CC(C)Nc1ncnc2ccc(-c3cccc(CN(Cc4ccccc4)C(=O)c4cccnc4)c3)cc12 [Example 153, N-benzyl-N-[3-(4-isopropylamino-quinazolin-6-yl)-benzyl]-nicotinamide]
90	O=C(c1ccccc1O)N(Cc1cccc(-c2ccc3ncnc(NC4CC4)c3c2)c1)C1CC1 [Example 156, N-cyclopropyl-N-[3-(4-cyclopropylamino-quinazolin-6-yl)-benzyl]-2-hydroxy-benzamide]
90	O=C(c1ccccc1Br)N(Cc1cccc(-c2ccc3ncnc(NC4CC4)c3c2)c1)C1CC1 [Example 157, 2-bromo-N-cyclopropyl-N-[3-(4-cyclopropylamino-quinazolin-6-yl)-benzyl]-benzamide]
81	COc1ccc(C(=O)N(Cc2cccc(-c3ccc4ncnc(NC5CC5)c4c3)c2)C2CC2)cc1OC [Example 158, N-cyclopropyl-N-[3-(4-cyclopropylamino-quinazolin-6-yl)-benzyl]-3,4-dimethoxy-benzamide]
85	O=C(c1cc2ccccc2cn1)N(Cc1cccc(-c2ccc3ncnc(NC4CC4)c3c2)c1)C1CC1 [Example 159, isoquinoline-3-carboxylic acid cyclopropyl-[3-(4-cyclopropylamino-quinazolin-6-yl)-benzyl]-amide]
96	N#Cc1ccc(C(=O)N(Cc2cccc(-c3ccc4ncnc(NC5CC5)c4c3)c2)C2CC2)cc1 [Example 161, 4-cyano-N-cyclopropyl-N-[3-(4-cyclopropylamino-quinazolin-6-yl)-benzyl]-benzamide]
89	O=C(c1cccc(Br)n1)N(Cc1cccc(-c2ccc3ncnc(NC4CC4)c3c2)c1)C1CC1 [Example 163, 6-bromo-pyridine-2-carboxylic acid cyclopropyl-[3-(4-cyclopropylamino-quinazolin-6-yl)-benzyl]-amide]
90	CCCC(=O)N(Cc1cccc(-c2ccc3ncnc(NC4CC4)c3c2)c1)C1CC1 [Example 168, N-cyclopropyl-N-[3-(4-cyclopropylamino-quinazolin-6-yl)-benzyl]-butyramide]
91	O=C(c1ccco1)N(Cc1cccc(-c2ccc3ncnc(NC4CC4)c3c2)c1)C1CC1 [Example 169, furan-2-carboxylic acid cyclopropyl-[3-(4-cyclopropylamino-quinazolin-6-yl)-benzyl]-amide]
78	O=C(c1ccccn1)N(Cc1cccc(-c2ccc3ncnc(NC4CC4)c3c2)c1)C1CC1 [Example 170, pyridine-2-carboxylic acid cyclopropyl-[3-(4-cyclopropylamino-quinazolin-6-yl)-benzyl]-amide]
99	O=C(c1ccccc1Cl)N(Cc1cccc(-c2ccc3ncnc(NC4CC4)c3c2)c1)C1CC1 [Example 172, 2-chloro-N-cyclopropyl-N-[3-(4-cyclopropylamino-quinazolin-6-yl)-benzyl]-benzamide]

The next lines start with the compound.

SMILES	inhibition at 10 µM [%]
Cc1ccc(C(=O)N(Cc2cccc(-c3ccc4ncnc(N5CCCC5)c4c3)c2)C2CC2)cc1 [Example 134, N-cyclopropyl-4-methyl-N-[3-(4-pyrrolidin-1-yl-quinazolin-6-yl)-benzyl]-benzamide]	58
COc1ccc(C(=O)N(Cc2cccc(-c3ccc4ncnc(N5CCCC5)c4c3)c2)C2CC2)cc1 [Example 142, N-cyclopropyl-4-methoxy-N-[3-(4-pyrrolidin-1-yl-quinazolin-6-yl)-benzyl]-benzamide]	51
O=C(c1ccccc1Cl)N(Cc1cccc(-c2ccc3ncnc(N4CCCC4)c3c2)c1)C1CC1 [Example 143, 2-chloro-N-cyclopropyl-N-[3-(4-pyrrolidin-1-yl-quinazolin-6-yl)-benzyl]-benzamide]	71
O=C(COc1ccccc1)N(Cc1cccc(-c2ccc3ncnc(N4CCCC4)c3c2)c1)C1CC1 [Example 145, N-cyclopropyl-2-phenoxy-N-[3-(4-pyrrolidin-1-yl-quinazolin-6-yl)-benzyl]-acetamide]	53
CC(C)Nc1ncnc2ccc(-c3cccc(CN(Cc4ccccc4)C(=O)c4ccco4)c3)cc12 [Example 149, furan-2-carboxylic acid benzyl-[3-(4-isopropylamino-quinazolin-6-yl)-benzyl]-amide]	32
CC(C)Nc1ncnc2ccc(-c3cccc(CN(Cc4ccccc4)C(=O)c4ccccc4Cl)c3)cc12 [Example 150, N-benzyl-2-chloro-N-[3-(4-isopropylamino-quinazolin-6-yl)-benzyl]-benzamide]	40
CC(C)Nc1ncnc2ccc(-c3cccc(CN(Cc4ccccc4)C(=O)c4cccs4)c3)cc12 [Example 154, thiophene-2-carboxylic acid benzyl-[3-(4-isopropylamino-quinazolin-6-yl)-benzyl]-amide]	37
COc1ccc(C(=O)N(Cc2ccccc2)Cc2cccc(-c3ccc4ncnc(NC(C)C)c4c3)c2)cc1 [Example 155, N-benzyl-N-[3-(4-isopropylamino-quinazolin-6-yl)-benzyl]-4-methoxy-benzamide]	67
O=C(c1ccc(Cl)cc1)N(Cc1cccc(-c2ccc3ncnc(NC4CC4)c3c2)c1)C1CC1 [Example 160, 4-chloro-N-cyclopropyl-N-[3-(4-cyclopropylamino-quinazolin-6-yl)-benzyl]-benzamide]	70
O=C(c1cnccn1)N(Cc1cccc(-c2ccc3ncnc(NC4CC4)c3c2)c1)C1CC1 [Example 162, pyrazine-2-carboxylic acid cyclopropyl-[3-(4-cyclopropylamino-quinazolin-6-yl)-benzyl]-amide]	84
O=C(COc1ccccc1)N(Cc1cccc(-c2ccc3ncnc(NC4CC4)c3c2)c1)C1CC1 [Example 164, N-cyclopropyl-N-[3-(4-cyclopropylamino-quinazolin-6-yl)-benzyl]-2-phenoxy-acetamide]	86
O=C(c1ccncc1)N(Cc1cccc(-c2ccc3ncnc(NC4CC4)c3c2)c1)C1CC1 [Example 165, N-cyclopropyl-N-[3-(4-cyclopropylamino-quinazolin-6-yl)-benzyl]-isonicotinamide]	88
O=C(c1ccc(Br)s1)N(Cc1cccc(-c2ccc3ncnc(NC4CC4)c3c2)c1)C1CC1 [Example 166, 5-bromo-thiophene-2-carboxylic acid cyclopropyl-[3-(4-cyclopropylamino-quinazolin-6-yl)-benzyl]-amide]	86
O=C(c1ccccc1C(F)(F)F)N(Cc1cccc(-c2ccc3ncnc(NC4CC4)c3c2)c1)C1CC1 [Example 167, N-cyclopropyl-N-[3-(4-cyclopropylamino-quinazolin-6-yl)-benzyl]-2-trifluoromethyl-benzamide]	98
COc1ccc(C(=O)N(Cc2cccc(-c3ccc4ncnc(NC5CC5)c4c3)c2)C2CC2)cc1 [Example 171, N-cyclopropyl-N-[3-(4-cyclopropylamino-quinazolin-6-yl)-benzyl]-4-methoxy-benzamide]	100
CN(C)CC(=O)N(Cc1cccc(-c2ccc3ncnc(NC4CC4)c3c2)c1)C1CC1 [Example 173, N-cyclopropyl-N-[3-(4-cyclopropylamino-quinazolin-6-yl)-benzyl]-2-dimethylamino-acetamide]	30
